Reference: publication PMC9412374, “Design, Synthesis, and Development of pyrazolo[1,5-a]pyrimidine Derivatives as a Novel Series of Selective PI3Kδ Inhibitors: Part I—Indole Derivatives” (Pharmaceuticals, 2022)
pIC50: −log10 of the molar value. Read-outs that look alike come from different tables or passages of the source.

Assays:
Format in all cases: biochemical
PI3Kδ = target: T1, PI3Kδ (Homo sapiens, UniProt O00329); experiment: In vitro kinase inhibition assay for PI3K (ADP-Glo), PI3Kδ; settings: recombinant kinase, mean of two independent experiments, read-out: IC50 PI3K δ
T1 construct: purchased Merck Millipore
T1 sequence (P27986 whole entry): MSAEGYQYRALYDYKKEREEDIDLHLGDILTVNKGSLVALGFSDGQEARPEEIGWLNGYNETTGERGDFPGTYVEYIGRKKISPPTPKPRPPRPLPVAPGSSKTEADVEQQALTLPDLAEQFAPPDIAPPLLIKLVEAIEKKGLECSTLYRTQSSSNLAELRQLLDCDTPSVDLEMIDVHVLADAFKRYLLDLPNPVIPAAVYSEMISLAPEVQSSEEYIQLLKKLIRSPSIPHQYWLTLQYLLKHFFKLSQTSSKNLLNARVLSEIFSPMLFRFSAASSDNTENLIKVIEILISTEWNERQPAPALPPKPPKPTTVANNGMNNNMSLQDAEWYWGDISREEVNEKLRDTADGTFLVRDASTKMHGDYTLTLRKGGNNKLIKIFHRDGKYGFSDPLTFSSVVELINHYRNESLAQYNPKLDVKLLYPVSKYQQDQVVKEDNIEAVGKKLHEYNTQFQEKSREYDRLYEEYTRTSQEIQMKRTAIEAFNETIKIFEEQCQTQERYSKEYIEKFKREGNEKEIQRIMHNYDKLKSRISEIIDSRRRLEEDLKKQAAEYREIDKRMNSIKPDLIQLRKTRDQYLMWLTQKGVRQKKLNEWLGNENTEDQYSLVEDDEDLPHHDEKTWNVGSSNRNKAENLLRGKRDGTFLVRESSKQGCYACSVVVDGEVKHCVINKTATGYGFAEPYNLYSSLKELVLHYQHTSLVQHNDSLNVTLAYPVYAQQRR
T1 sequence (O00329 whole entry): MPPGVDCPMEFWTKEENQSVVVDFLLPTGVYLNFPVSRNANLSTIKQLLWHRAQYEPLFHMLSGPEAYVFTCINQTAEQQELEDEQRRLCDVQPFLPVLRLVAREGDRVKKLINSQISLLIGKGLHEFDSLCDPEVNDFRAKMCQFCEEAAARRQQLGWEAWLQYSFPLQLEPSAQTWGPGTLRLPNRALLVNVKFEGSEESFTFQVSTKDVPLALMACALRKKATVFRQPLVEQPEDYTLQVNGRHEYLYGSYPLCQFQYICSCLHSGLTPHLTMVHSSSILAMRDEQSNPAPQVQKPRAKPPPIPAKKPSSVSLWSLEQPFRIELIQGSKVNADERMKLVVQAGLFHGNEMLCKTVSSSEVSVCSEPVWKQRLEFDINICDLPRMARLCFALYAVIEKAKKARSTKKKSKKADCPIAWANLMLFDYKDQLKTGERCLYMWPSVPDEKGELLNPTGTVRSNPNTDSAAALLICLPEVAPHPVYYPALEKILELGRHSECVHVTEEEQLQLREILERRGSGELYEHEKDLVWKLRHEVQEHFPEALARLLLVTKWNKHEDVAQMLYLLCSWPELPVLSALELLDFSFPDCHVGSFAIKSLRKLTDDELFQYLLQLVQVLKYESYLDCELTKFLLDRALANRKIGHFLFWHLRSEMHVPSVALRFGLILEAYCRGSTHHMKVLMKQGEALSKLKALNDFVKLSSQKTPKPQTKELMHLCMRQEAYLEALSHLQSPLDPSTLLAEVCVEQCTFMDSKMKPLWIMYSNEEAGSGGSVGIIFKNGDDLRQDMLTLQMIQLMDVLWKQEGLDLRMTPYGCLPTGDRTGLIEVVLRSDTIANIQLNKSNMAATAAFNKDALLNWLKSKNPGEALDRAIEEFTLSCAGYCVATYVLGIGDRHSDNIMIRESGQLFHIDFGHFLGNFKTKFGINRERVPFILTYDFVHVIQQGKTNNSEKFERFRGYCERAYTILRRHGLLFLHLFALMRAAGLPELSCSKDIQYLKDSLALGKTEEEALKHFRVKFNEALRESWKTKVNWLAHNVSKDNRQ
Procedure: (§1) Tested compounds were dissolved in 100% DMSO, and obtained solutions were serially diluted in 1× reaction buffer. The recombinant kinase solution was diluted in a reaction mixture comprising 5× reaction buffer, respective compound solution (1 mM sodium diacetate 4,5-bisphosphate phosphatidylinositol (PIP2) solution in 40 mM Tris buffer), and water. In a 96-wells plate, 5 μL of compound solutions and 15 μL of the kinase solution in the reaction mixture were added per well. To initiate the interaction of chemical compounds to be tested with the enzyme, the plate was incubated for 10 min at a suitable temperature in a plate thermostat with orbital shaking at 600 rpm. Negative control wells contained all the above reagents except tested compound and kinase, and positive control wells contained all the above reagents except tested compounds. […] Subsequently, the plate was incubated for 1 h at 25 or 30 °C (depending on the PI3K isoform tested) in a plate thermostat with orbital shaking of the plate contents at 600 rpm. The reaction conditions are combined in the table below (Table 6).
(§2) Detection of ADP formed in the enzymatic reaction was then performed using ADP-Glo Kinase Assay™ (Promega, Madison, WI, USA). To the wells of a 96-well plate, 25 μL of ADP-Glo Reagent™ was added, and the plate was incubated for 40 min at 25 °C in a plate thermostat with orbital shaking at 600 rpm. Then 50 μL of Kinase Detection Reagent were added to each well, and the plate was incubated for 40 min at 25 °C in a plate thermostat with orbital shaking at 600 rpm. Once the incubation was complete, the luminescence intensity was measured using a Victor Light luminometer (Perkin Elmer, Inc., Waltham, MA, USA). IC50 values were determined based on luminescence intensity measured in wells containing tested compounds at different concentrations in relation to control wells. […] Each compound was tested at least in quadruplicates (4 wells) on two 96-well plates utilizing at least 4 wells for each control.

PI3Kγ = target: T2, PI3Kγ (Homo sapiens, UniProt P48736); experiment: In vitro kinase inhibition assay for PI3K (ADP-Glo), PI3Kγ; settings: for Fold Selectivity γ/δ: ratio of IC50 PI3Kγ to IC50 PI3Kδ
T2 construct: purchased Merck Millipore
T2 sequence (P48736 whole entry): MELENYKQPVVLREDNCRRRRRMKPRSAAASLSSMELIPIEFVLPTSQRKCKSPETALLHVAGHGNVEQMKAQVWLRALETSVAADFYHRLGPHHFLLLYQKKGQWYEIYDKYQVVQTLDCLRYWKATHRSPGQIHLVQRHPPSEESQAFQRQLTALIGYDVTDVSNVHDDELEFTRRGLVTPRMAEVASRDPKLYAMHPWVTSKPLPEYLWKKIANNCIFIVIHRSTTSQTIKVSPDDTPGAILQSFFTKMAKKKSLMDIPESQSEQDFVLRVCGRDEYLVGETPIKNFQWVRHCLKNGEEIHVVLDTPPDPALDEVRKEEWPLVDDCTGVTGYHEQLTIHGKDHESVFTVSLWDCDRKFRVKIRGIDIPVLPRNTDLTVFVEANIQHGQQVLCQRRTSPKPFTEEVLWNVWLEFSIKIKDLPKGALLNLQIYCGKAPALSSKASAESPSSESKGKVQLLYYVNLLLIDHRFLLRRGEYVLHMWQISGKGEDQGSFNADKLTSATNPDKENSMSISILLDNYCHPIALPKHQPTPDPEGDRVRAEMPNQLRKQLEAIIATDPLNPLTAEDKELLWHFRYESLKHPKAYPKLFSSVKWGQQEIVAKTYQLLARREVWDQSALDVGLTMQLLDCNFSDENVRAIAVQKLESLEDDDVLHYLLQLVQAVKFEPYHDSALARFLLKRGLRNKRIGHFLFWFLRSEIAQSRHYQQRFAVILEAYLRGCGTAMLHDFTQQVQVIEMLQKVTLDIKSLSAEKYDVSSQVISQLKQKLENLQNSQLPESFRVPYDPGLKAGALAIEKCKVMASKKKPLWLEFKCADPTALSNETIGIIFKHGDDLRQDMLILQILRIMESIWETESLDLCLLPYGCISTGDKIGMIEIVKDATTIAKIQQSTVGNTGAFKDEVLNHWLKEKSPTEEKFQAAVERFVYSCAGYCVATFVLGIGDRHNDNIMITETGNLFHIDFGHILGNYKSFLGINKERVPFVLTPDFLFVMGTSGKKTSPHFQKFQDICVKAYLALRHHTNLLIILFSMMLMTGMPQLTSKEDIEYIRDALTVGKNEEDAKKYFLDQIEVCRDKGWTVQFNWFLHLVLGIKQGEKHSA
Procedure: as §1, §2

PI3Kβ = target: T3, PI3Kβ (Homo sapiens, UniProt P42338); experiment: In vitro kinase inhibition assay for PI3K (ADP-Glo), PI3Kβ; settings: for Fold Selectivity β/δ: ratio of IC50 PI3Kβ to IC50 PI3Kδ
T3 construct: purchased Merck Millipore
T3 sequence (P42338 whole entry): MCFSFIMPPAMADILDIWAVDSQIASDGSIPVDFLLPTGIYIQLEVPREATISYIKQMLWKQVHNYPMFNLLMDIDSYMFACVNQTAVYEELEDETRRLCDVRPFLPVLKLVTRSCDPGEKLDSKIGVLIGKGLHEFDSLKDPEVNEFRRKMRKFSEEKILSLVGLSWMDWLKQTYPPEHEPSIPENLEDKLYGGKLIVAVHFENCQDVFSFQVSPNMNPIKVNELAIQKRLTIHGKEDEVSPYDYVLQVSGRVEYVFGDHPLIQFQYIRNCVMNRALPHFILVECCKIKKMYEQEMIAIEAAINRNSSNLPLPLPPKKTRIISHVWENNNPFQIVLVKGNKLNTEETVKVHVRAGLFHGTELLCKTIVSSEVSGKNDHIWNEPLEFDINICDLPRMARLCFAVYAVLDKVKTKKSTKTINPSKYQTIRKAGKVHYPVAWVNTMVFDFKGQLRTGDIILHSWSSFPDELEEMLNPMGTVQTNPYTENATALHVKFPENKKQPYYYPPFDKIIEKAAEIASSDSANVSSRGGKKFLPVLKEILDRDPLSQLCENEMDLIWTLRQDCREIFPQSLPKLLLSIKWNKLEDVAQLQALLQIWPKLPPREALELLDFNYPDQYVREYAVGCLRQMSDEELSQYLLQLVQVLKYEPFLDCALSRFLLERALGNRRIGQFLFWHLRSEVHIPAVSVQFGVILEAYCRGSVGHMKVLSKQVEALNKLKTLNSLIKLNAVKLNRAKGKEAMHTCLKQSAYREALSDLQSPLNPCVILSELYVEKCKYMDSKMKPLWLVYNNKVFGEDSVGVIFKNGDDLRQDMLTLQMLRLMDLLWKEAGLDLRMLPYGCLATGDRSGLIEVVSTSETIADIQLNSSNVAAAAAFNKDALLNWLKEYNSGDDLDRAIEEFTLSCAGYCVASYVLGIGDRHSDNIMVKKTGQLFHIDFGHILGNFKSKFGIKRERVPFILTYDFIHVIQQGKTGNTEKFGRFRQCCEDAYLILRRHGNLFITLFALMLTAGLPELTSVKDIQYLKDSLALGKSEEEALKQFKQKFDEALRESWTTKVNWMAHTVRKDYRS
T3 sequence (P27986 whole entry, further chain): as the sequence (P27986 whole entry) above
Procedure: as §1, §2

PI3Kα = target: T4, PI3Kα (Homo sapiens, UniProt P42336); experiment: In vitro kinase inhibition assay for PI3K (ADP-Glo), PI3Kα; settings: for pIC50: IC50 PI3K α, recombinant kinase, ADP-Glo, mean of two independent experiments; for Fold Selectivity α/δ: ratio of IC50 PI3Kα to IC50 PI3Kδ
T4 construct: purchased Carna Biosciences
T4 sequence (P42336 whole entry): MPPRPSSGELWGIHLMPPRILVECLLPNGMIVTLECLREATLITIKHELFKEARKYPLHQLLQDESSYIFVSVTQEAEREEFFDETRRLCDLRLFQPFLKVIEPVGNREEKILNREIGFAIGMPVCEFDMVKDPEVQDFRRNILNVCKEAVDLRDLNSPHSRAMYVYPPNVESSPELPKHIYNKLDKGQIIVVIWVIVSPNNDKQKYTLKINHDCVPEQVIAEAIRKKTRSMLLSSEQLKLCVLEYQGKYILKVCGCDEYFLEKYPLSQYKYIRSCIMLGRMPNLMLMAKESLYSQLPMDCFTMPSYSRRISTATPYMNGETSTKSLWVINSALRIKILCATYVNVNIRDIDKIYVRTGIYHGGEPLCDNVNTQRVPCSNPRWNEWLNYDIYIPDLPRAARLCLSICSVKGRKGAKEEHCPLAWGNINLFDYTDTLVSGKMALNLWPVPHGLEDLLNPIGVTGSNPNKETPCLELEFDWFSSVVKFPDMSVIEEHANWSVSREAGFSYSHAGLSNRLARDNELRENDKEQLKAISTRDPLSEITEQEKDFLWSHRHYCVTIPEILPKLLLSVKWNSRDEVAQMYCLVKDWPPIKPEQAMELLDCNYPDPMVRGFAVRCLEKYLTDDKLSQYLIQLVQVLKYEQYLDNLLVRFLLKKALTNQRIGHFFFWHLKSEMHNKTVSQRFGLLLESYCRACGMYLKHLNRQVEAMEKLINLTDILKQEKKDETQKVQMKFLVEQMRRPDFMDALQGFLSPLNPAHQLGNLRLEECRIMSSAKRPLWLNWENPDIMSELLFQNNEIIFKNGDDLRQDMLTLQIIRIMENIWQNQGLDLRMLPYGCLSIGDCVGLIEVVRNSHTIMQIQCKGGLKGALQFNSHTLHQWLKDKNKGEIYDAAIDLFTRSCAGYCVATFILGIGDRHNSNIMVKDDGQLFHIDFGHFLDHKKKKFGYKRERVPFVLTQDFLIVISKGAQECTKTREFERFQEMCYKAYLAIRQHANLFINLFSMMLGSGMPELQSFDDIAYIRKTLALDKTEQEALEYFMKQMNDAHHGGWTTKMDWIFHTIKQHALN
T4 sequence (P27986 whole entry partner): as the sequence (P27986 whole entry) above
Procedure: Tested compounds were dissolved in 100% DMSO, and obtained solutions were serially diluted in 1× reaction buffer. The recombinant kinase solution was diluted in a reaction mixture comprising 5× reaction buffer, respective compound solution (1 mM sodium diacetate 4,5-bisphosphate phosphatidylinositol (PIP2) solution in 40 mM Tris buffer), and water. In a 96-wells plate, 5 μL of compound solutions and 15 μL of the kinase solution in the reaction mixture were added per well. To initiate the interaction of chemical compounds to be tested with the enzyme, the plate was incubated for 10 min at a suitable temperature in a plate thermostat with orbital shaking at 600 rpm. Negative control wells contained all the above reagents except tested compound and kinase, and positive control wells contained all the above reagents except tested compounds. The enzymatic reaction was initiated by adding 5 μL of 150 μM ATP solution. Subsequently, the plate was incubated for 1 h at 25 or 30 °C (depending on the PI3K isoform tested) in a plate thermostat with orbital shaking of the plate contents at 600 rpm. The reaction conditions are combined in the table below (Table 6).
Detection of ADP formed in the enzymatic reaction was then performed using ADP-Glo Kinase Assay™ (Promega, Madison, WI, USA). To the wells of a 96-well plate, 25 μL of ADP-Glo Reagent™ was added, and the plate was incubated for 40 min at 25 °C in a plate thermostat with orbital shaking at 600 rpm. Then 50 μL of Kinase Detection Reagent were added to each well, and the plate was incubated for 40 min at 25 °C in a plate thermostat with orbital shaking at 600 rpm. Once the incubation was complete, the luminescence intensity was measured using a Victor Light luminometer (Perkin Elmer, Inc., Waltham, MA, USA). IC50 values were determined based on luminescence intensity measured in wells containing tested compounds at different concentrations in relation to control wells. These values were calculated with Graph Pad 5.03 software by fitting the curve using non-linear regression. Each compound was tested at least in quadruplicates (4 wells) on two 96-well plates utilizing at least 4 wells for each control. Averaged results of inhibition activity respective to specific isoforms of PI3K kinases for tested compounds are presented as IC50 values in Table 1, Table 2, Table 3 and Table 4.

[1] = recombinant kinase, ADP-Glo, mean of two independent experiments, read-out: IC50 PI3K γ
[2] = recombinant kinase, ADP-Glo, mean of two independent experiments, read-out: IC50 PI3K β

CN(C)C1CCN(Cc2cc3nc(-c4cccc5[nH]ccc45)cc(N4CCOCC4)n3n2)CC1 [Compound 24, 2-((4-(dimethylamino)piperidin-1-yl)methyl)-5-(1H-indol-4-yl)-7-(morpholin-4-yl)pyrazolo[1,5-a]pyrimidine]
pIC50 (PI3Kδ): 7.43 | Fold Selectivity γ/δ (PI3Kγ): 1332 | pIC50 (PI3Kγ; [1]): 4.31 | Fold Selectivity β/δ (PI3Kβ): 389 | pIC50 (PI3Kβ; [2]): 4.84 | pIC50 (PI3Kα): 5.20 | Fold Selectivity α/δ (PI3Kα): 172

CCN1CCN(Cc2cc3nc(-c4cccc5[nH]ccc45)cc(N4CCOCC4)n3n2)CC1 [Compound 34, 2-((4-ethylpiperazin-1-yl)methyl)-5-(1H-indol-4-yl)-7-(morpholin-4-yl)pyrazolo[1,5-a]pyrimidine]
pIC50 (PI3Kδ): 7.37 | Fold Selectivity γ/δ (PI3Kγ): >1395 | pIC50 (PI3Kγ; [1]): < 4.22 | Fold Selectivity β/δ (PI3Kβ): 253 | pIC50 (PI3Kβ; [2]): 4.96 | pIC50 (PI3Kα): 4.46 | Fold Selectivity α/δ (PI3Kα): 798

CC(C)(O)C1CCN(Cc2cc3nc(-c4cccc5[nH]ccc45)cc(N4CCOCC4)n3n2)CC1 [Compound 36, 2-((4-(2-hydroxypropan-2-yl)piperidin-1-yl)methyl)-5-(1H-indol-4-yl)-7-(morpholin-4-yl)pyrazolo[1,5-a]pyrimidine]
pIC50 (PI3Kδ): 7.89 | pIC50 (PI3Kγ): 4.80 | Fold Selectivity γ/δ (PI3Kγ): 1223 | Fold Selectivity β/δ (PI3Kβ): 332 | pIC50 (PI3Kβ; [2]): 5.37 | pIC50 (PI3Kα): 4.80 | Fold Selectivity α/δ (PI3Kα): 1217

CC(C)(C(N)=O)N1CCN(Cc2cc3nc(-c4cccc5[nH]ccc45)cc(N4CCOCC4)n3n2)CC1 [Compound 38, 2-(4-((5-(1H-indol-4-yl)-7-(morpholin-4-yl)pyrazolo[1,5-a]pyrimidin-2-yl)methyl)piperazin-1-yl)-2-methylpropionamide]
pIC50 (PI3Kδ): 7.39 | pIC50 (PI3Kγ): 4.76 | Fold Selectivity γ/δ (PI3Kγ): 428 | Fold Selectivity β/δ (PI3Kβ): 146 | pIC50 (PI3Kβ; [2]): 5.22 | pIC50 (PI3Kα): 4.75 | Fold Selectivity α/δ (PI3Kα): 433

c1cc(-c2cc(N3CCOCC3)n3nc(CN4CCN(C5CC5)CC4)cc3n2)c2cc[nH]c2c1 [Compound 39, 2-((4-cyclopropylpiperazin-1-yl)methyl)-5-(1H-indol-4-yl)-7-(morpholin-4-yl)pyrazolo[1,5-a]pyrimidine]
pIC50 (PI3Kδ): 7.24 | Fold Selectivity β/δ (PI3Kβ): 259 | pIC50 (PI3Kβ; [2]): 4.82 | pIC50 (PI3Kα): 4.60 | Fold Selectivity α/δ (PI3Kα): 436

CC(C)(C)C1CCN(Cc2cc3nc(-c4cccc5[nH]ccc45)cc(N4CCOCC4)n3n2)CC1 [Compound 41, 2-((4-tert-butylpiperidin-1-yl)methyl)-5-(1H-indol-4-yl)-7-(morpholin-4-yl)pyrazolo[1,5-a]pyrimidine]
pIC50 (PI3Kδ): 7.29 | Fold Selectivity γ/δ (PI3Kγ): 191 | pIC50 (PI3Kγ; [1]): 5.01 | Fold Selectivity β/δ (PI3Kβ): 62 | pIC50 (PI3Kβ; [2]): 5.50 | pIC50 (PI3Kα): 4.91 | Fold Selectivity α/δ (PI3Kα): 241

O=C(C1CC1)N1CCN(Cc2cc3nc(-c4cccc5[nH]ccc45)cc(N4CCOCC4)n3n2)CC1 [Compound 44, 2-((4-(cyclopropanecarbonyl)piperazin-1-yl)methyl)-5-(1H-indol-4-yl)-7-(morpholin-4-yl)pyrazolo[1,5-a]pyrimidine]
pIC50 (PI3Kδ): 7.66 | Fold Selectivity γ/δ (PI3Kγ): 38 | pIC50 (PI3Kγ; [1]): 6.07 | Fold Selectivity β/δ (PI3Kβ): 332 | pIC50 (PI3Kβ; [2]): 5.14 | pIC50 (PI3Kα): 5.90 | Fold Selectivity α/δ (PI3Kα): 58

CC(C)(O)C1CCN(Cc2cc3nc(-c4c(F)ccc5[nH]ccc45)cc(N4CCOCC4)n3n2)CC1 [Compound 49, 2-((4-(2-hydroxypropan-2-yl)piperidin-1-yl)methyl)-5-(5-fluoro-1H-indol-4-yl)-7-(morpholin-4-yl)pyrazolo[1,5-a]pyrimidine]
pIC50 (PI3Kδ): 7.40 | Fold Selectivity γ/δ (PI3Kγ): 1195 | pIC50 (PI3Kγ; [1]): 4.32 | Fold Selectivity β/δ (PI3Kβ): 283 | pIC50 (PI3Kβ; [2]): 4.95 | pIC50 (PI3Kα): 4.46 | Fold Selectivity α/δ (PI3Kα): 860

CC(C)(O)C1CCN(Cc2cc3nc(-c4cncc5[nH]ccc45)cc(N4CCOCC4)n3n2)CC1 [Compound 50, 2-((4-(2-hydroxypropan-2-yl)piperidin-1-yl)methyl)-5-(1H-pyrrolo [2,3-c]pyridin-4-yl)-7-(morpholin-4-yl)pyrazolo[1,5-a]pyrimidine]
pIC50 (PI3Kδ): 7.55 | Fold Selectivity β/δ (PI3Kβ): 188 | pIC50 (PI3Kβ; [2]): 5.28 | pIC50 (PI3Kα): 5.44 | Fold Selectivity α/δ (PI3Kα): 130

CC(C)(O)C1CCN(Cc2cc3nc(-c4ccnc5[nH]ccc45)cc(N4CCOCC4)n3n2)CC1 [Compound 51, 2-((4-(2-hydroxypropan-2-yl)piperidin-1-yl)methyl)-5-(1H-pyrrolo [2,3-b]pyridin-4-yl)-7-(morpholin-4-yl)pyrazolo[1,5-a]pyrimidine]
pIC50 (PI3Kδ): 7.64 | Fold Selectivity β/δ (PI3Kβ): 1165 | pIC50 (PI3Kβ; [2]): 4.57 | pIC50 (PI3Kα): 5.01 | Fold Selectivity α/δ (PI3Kα): 424

CC(C)(C)N1CCN(Cc2cc3nc(-c4c(F)ccc5[nH]ccc45)cc(N4CCOCC4)n3n2)CC1 [Compound 53, 2-((4-tert-butylpiperazin-1-yl)methyl)-5-(5-fluoro-1H-indol-4-yl)-7-(morpholin-4-yl)pyrazolo[1,5-a]pyrimidine]
pIC50 (PI3Kδ): 7.96 | Fold Selectivity γ/δ (PI3Kγ): >5455 | pIC50 (PI3Kγ; [1]): < 4.22 | pIC50 (PI3Kβ): 4.71 | Fold Selectivity β/δ (PI3Kβ): 1768 | pIC50 (PI3Kα): 4.71 | Fold Selectivity α/δ (PI3Kα): 1754

CC(C)(C)N1CCN(Cc2cc3nc(-c4ccnc5[nH]ccc45)cc(N4CCOCC4)n3n2)CC1 [Compound 55, 2-((4-tert-butylpiperazin-1-yl)methyl)-5-(1H-pyrrolo [2,3-b]pyridin-4-yl)-7-(morpholin-4-yl)pyrazolo[1,5-a]pyrimidine]
pIC50 (PI3Kδ): 7.35 | Fold Selectivity β/δ (PI3Kβ): 711 | pIC50 (PI3Kβ; [2]): 4.49 | pIC50 (PI3Kα): 5.53 | Fold Selectivity α/δ (PI3Kα): 66
